Laboratory results from PMC12073785, “Design, Synthesis and Biological Evaluation of 3-Hydrazonoindolin-2-one Derivatives as Novel HIV-1 RNase H Inhibitors” (Molecules, 2025).

Columns and labels:
[1] = biological target: T1, HIV-1 RT-associated RNase H (Human immunodeficiency virus type 1 group M subtype B, UniProt P04585); assay: HIV-1 RT-associated RNase H inhibition (fluorescent RNA/DNA hybrid); type: biochemical; settings: for IC50: HIV-1 RT wt, average of three independent determinations, read-out: IC50, concentration required to inhibit 50% of in vitro RNase H activity; for Fold increase in RNase H inhibitory potency compared to compound 6a: IC50 ratio versus 6a; for Fold increase in RNase H inhibitory potency compared to compound 6t: IC50 ratio versus 6t
T1 construct: HIV-1 group M subtype B heterodimeric reverse transcriptase (RT) was expressed and purified; made in house; host or cells: Escherichia coli strain M15, p6HRT-Prot expression vector
Protocol: The tested compounds were initially dissolved in dimethyl sulfoxide (DMSO) at a concentration of 50 mM and subsequently serially diluted (ratio 1:3). The compounds were tested as previously described.
Briefly, a reaction mixture containing 50 mM Tris-HCl buffer pH 7.8, 6 mM MgCl2, 1 mM dithiothreitol (DTT), 80 mM KCl, 0.25 μM hybrid RNA/DNA. 25 μM of RNA/DNA hybrid 5′-GAUCUGAGCCUGGAGCU-Fluorescin-3′ (HPLC, dry, QC: Mass Check), 5′-Dabcyl-AGCTCCCAGGCTCAGATC-3′ (HPLC, dry, QC: Mass Check), and increasing concentrations of inhibitors was diluted in DMSO. The activity of the RNase H function associated with HIV-1 RT was quantified by measuring the linear portion of the dose–response curve. The reaction mixture was incubated at 37 °C for 10 min with a Victor Nivo 5 multilabel plate reader (model 1420-051, PerkinElmer, Waltham, MA, USA), and fluorescence signals were recorded at excitation/emission wavelengths of 490/528 nm. Based on the obtained fluorescence data, the inhibitory concentration 50 (IC50) of the target compounds was calculated by interpolation on a dose–response curve. Results are reported as average and standard deviation of at least two independent replicates in triplicate.

[2] = biological target: T1, HIV-1 RT-associated RNase H; assay: Kinetic analysis of RNase H inhibition, competition with RNA/DNA substrate; type: biochemical; settings: for Mode of inhibition: Michaelis Menten and Lineweaver-Burk plots; for Ki: competition with RNA substrate
Description: Based on the docking binding predictions, compound 6t and compound 11a were chosen for further characterization. To study the interaction between the chemical compounds and the enzyme in complex with the substrate, we evaluated the competition of compounds 6a and 11a with the RNA substrate (Figure 5). […] Given the results obtained, it is hypothesized that the binding between the inhibitor and the RT protein may modulate the interaction between the enzyme and the RNA substrate, resulting in an increased apparent KM and decreased apparent Vmax when increasing the concentration of the inhibitor.
Kinetic analysis of the DNA-polymerase independent RNase H activity was performed as already reported. Briefly, a reaction mixture containing 50 mM Tris-HCl buffer pH 7.8, 6 mM MgCl2, 1 mM DTT, 80 mM KCl, and increasing concentrations of hybrid RNA/DNA 5′-GAUCUGAGCCUGGGAGCU-Fluorescin-3′/5′-Dabcyl-AGCTCCCAGGCTCAGATC-3′ was incubated at 37 °C for 10 min with a Victor Nivo 5 multilabel plate reader (model 1420-051, PerkinElmer, Waltham, MA, USA), and fluorescence signals were recorded at excitation/emission wavelengths of 490/528 nm. Results were represented according to Michaelis Menten and Lineaweaver–Burke plots.

HIV-1 (strain IIIB) = assay: Anti-HIV-1 (strain IIIB) activity in MT-4 cells, MTT assay; type: cell-based; settings: for EC50: Human immunodeficiency virus 1, IIIB, MT4, protection of MT-4 cells against HIV-induced cytopathogenicity by 50%; for SI, selectivity index: ratio CC50/EC50, MT-4 cells
Protocol: (§1) The anti-HIV-1 (strain IIIB) activity evaluation in MT-4 cells was conducted using an optimized MTT assay. The cell lines were obtained from the laboratory (Prof. Erik De Clercq, Rega Institute for Medical Research, KU Leuven, Herestraat 49, Leuven, Belgium). Compounds were serially diluted (5-fold increments, starting from 10× concentration) and dispensed into 96-well plates (25 µL/well) via an automated Biomek 3000 workstation (Beckman Instruments, Fullerton, CA, USA). Parallel experimental groups included virus-infected (50 µL HIV inoculum, 100–300 TCID50) and mock-infected controls (50 µL culture medium). MT-4 cells were centrifuged (220× g, 5 min), resuspended to 6 × 10⁵ cells/mL, and seeded (50 µL/well). After a 5-day incubation, cell viability was quantified by measuring mitochondrial dehydrogenase-mediated MTT-to-formazan conversion using dual-wavelength spectrophotometry (540 nm primary, 690 nm reference). The 50% cytotoxic concentration (CC50) was calculated from triplicate median absorbance values, representing the compound concentration reducing mock-infected cell viability by 50%.

[3] = Cytotoxicity in mock-infected MT-4 cells, MTT assay; type: cell-based; settings: human, mock-infected MT-4 cells; reduction of normal uninfected MT-4 cell viability by 50%
Protocol: as §1

HIV-1 RT R448A = assay: RNase H inhibition with HIV-1 RT R448A mutant versus RT wt; type: biochemical; settings: HIV-1 RT R448A versus RT wt
Description: Furthermore, to validate the docking binding prediction of the compounds in the active site of the RT, and the interaction with amino acid residue R448, which was predicted to stabilize the binding of the compounds through a hydrogen bond, we evaluated the activity of compounds 6t and 11a in parallel against the RT wt enzyme and the HIV-1 RT R448A mutant (Figure 6). […] The results confirmed the importance of residue R448 in the binding of inhibitors and validated the predicted binding site to the enzyme; indeed, the less pronounced effect of R448A mutation on 11a inhibitory activity might be explained with the additional hydrogen bound predicted to form between 11a and amino acid Q475 (Figure 6).

## O=C1Nc2ccc(F)cc2C1=NNc1cc(=O)[nH]c(=O)[nH]1 [Compound 6a, 6-(2-(5-Fluoro-2-oxoindolin-3-ylidene)hydrazineyl)pyrimidine-2,4(1H,3H)-dione]
[1]
  IC50: 81.2 ± 11.4 µM

## O=C1Nc2ccccc2C1=NNc1cc(=O)[nH]c(=O)[nH]1 [Compound 6b, 6-(2-(2-Oxoindolin-3-ylidene)hydrazineyl)pyrimidine-2,4(1H,3H)-dione]
[1]
  IC50: > 100 µM

## O=C1Nc2ccc(Cl)cc2C1=NNc1cc(=O)[nH]c(=O)[nH]1 [Compound 6c, 6-(2-(5-Chloro-2-oxoindolin-3-ylidene)hydrazineyl)pyrimidine-2,4(1H,3H)-dione]
[1]
  IC50: 58.8 ± 2.4 µM

## O=C1Nc2ccc(Br)cc2C1=NNc1cc(=O)[nH]c(=O)[nH]1 [Compound 6d, 6-(2-(5-Bromo-2-oxoindolin-3-ylidene)hydrazineyl)pyrimidine-2,4(1H,3H)-dione]
[1]
  IC50: > 100 µM

## Cc1ccc2c(c1)C(=NNc1cc(=O)[nH]c(=O)[nH]1)C(=O)N2 [Compound 6e, 6-(2-(5-Methyl-2-oxoindolin-3-ylidene)hydrazineyl)pyrimidine-2,4(1H,3H)-dione]
[1]
  IC50: > 100 µM

## O=C1Nc2ccc(OC(F)(F)F)cc2C1=NNc1cc(=O)[nH]c(=O)[nH]1 [Compound 6f, 6-(2-(2-Oxo-5-(trifluoromethoxy)indolin-3-ylidene)hydrazineyl)pyrimidine-2,4(1H,3H)-dione]
[1]
  IC50: 8.94 ± 1.43 µM

## O=C1Nc2cc(F)ccc2C1=NNc1cc(=O)[nH]c(=O)[nH]1 [Compound 6g, 6-(2-(6-Fluoro-2-oxoindolin-3-ylidene)hydrazineyl)pyrimidine-2,4(1H,3H)-dione]
[1]
  IC50: 56.8 ± 15.9 µM

## O=C1Nc2cc(Cl)ccc2C1=NNc1cc(=O)[nH]c(=O)[nH]1 [Compound 6h, 6-(2-(6-Chloro-2-oxoindolin-3-ylidene)hydrazineyl)pyrimidine-2,4(1H,3H)-dione]
[1]
  IC50: > 100 µM

## O=C1Nc2cc(Br)ccc2C1=NNc1cc(=O)[nH]c(=O)[nH]1 [Compound 6i, 6-(2-(6-Bromo-2-oxoindolin-3-ylidene)hydrazineyl)pyrimidine-2,4(1H,3H)-dione]
[1]
  IC50: 23.6 ± 1.11 µM

## O=C1Nc2cc(OC(F)(F)F)ccc2C1=NNc1cc(=O)[nH]c(=O)[nH]1 [Compound 6j, 6-(2-(2-Oxo-6-(trifluoromethoxy)indolin-3-ylidene)hydrazineyl)pyrimidine-2,4(1H,3H)-dione]
[1]
  IC50: 15.28 ± 0.01 µM

## O=C1Nc2c(F)cccc2C1=NNc1cc(=O)[nH]c(=O)[nH]1 [Compound 6k, 6-(2-(7-Fluoro-2-oxoindolin-3-ylidene)hydrazineyl)pyrimidine-2,4(1H,3H)-dione]
[1]
  IC50: > 100 µM

## O=C1Nc2c(Cl)cccc2C1=NNc1cc(=O)[nH]c(=O)[nH]1 [Compound 6l, 6-(2-(7-Chloro-2-oxoindolin-3-ylidene)hydrazineyl)pyrimidine-2,4(1H,3H)-dione]
[1]
  IC50: 46.6 ± 3.25 µM

## O=C1Nc2c(Br)cccc2C1=NNc1cc(=O)[nH]c(=O)[nH]1 [Compound 6m, 6-(2-(7-Bromo-2-oxoindolin-3-ylidene)hydrazineyl)pyrimidine-2,4(1H,3H)-dione]
[1]
  IC50: 43.8 ± 7.92 µM

## Cc1cccc2c1NC(=O)C2=NNc1cc(=O)[nH]c(=O)[nH]1 [Compound 6n, 6-(2-(7-Methyl-2-oxoindolin-3-ylidene)hydrazineyl)pyrimidine-2,4(1H,3H)-dione]
[1]
  IC50: 25.5 ± 1.37 µM

## O=C1Nc2c(cccc2C(F)(F)F)C1=NNc1cc(=O)[nH]c(=O)[nH]1 [Compound 6o, 6-(2-(2-Oxo-7-(trifluoromethyl)indolin-3-ylidene)hydrazineyl)pyrimidine-2,4(1H,3H)-dione]
[1]
  IC50: 24.1 ± 7.02 µM

## COc1ccc2c(c1)C(=NNc1cc(=O)[nH]c(=O)[nH]1)C(=O)N2 [Compound 6p, 6-(2-(5-Methoxy-2-oxoindolin-3-ylidene)hydrazineyl)pyrimidine-2,4(1H,3H)-dione]
[1]
  IC50: > 100 µM

## COc1ccc2c(c1)NC(=O)C2=NNc1cc(=O)[nH]c(=O)[nH]1 [Compound 6q, 6-(2-(6-Methoxy-2-oxoindolin-3-ylidene)hydrazineyl)pyrimidine-2,4(1H,3H)-dione]
[1]
  IC50: > 100 µM

## COc1cccc2c1NC(=O)C2=NNc1cc(=O)[nH]c(=O)[nH]1 [Compound 6r, 6-(2-(7-Methoxy-2-oxoindolin-3-ylidene)hydrazineyl)pyrimidine-2,4(1H,3H)-dione]
[1]
  IC50: > 100 µM

## O=C1Nc2cc(F)c(F)cc2C1=NNc1cc(=O)[nH]c(=O)[nH]1 [Compound 6s, 6-(2-(5,6-Difluoro-2-oxoindolin-3-ylidene)hydrazineyl)pyrimidine-2,4(1H,3H)-dione]
[1]
  IC50: 64.9 ± 0.77 µM

## O=C1Nc2cc(Cl)c(Cl)cc2C1=NNc1cc(=O)[nH]c(=O)[nH]1 [Compound 6t, 6-(2-(5,6-Dichloro-2-oxoindolin-3-ylidene)hydrazineyl)pyrimidine-2,4(1H,3H)-dione]
[2]
  Mode of inhibition: mixed model inhibitor
  Ki: 2.31 µM
[2]; inhibitor 4 μM
  Vmax (apparent): 124.2
[2]; inhibitor 12 μM
  Vmax (apparent): 104.6
[1]
  IC50: 7.85 ± 0.55 µM
  Fold increase in RNase H inhibitory potency compared to compound 6a: ~10 fold
HIV-1 (strain IIIB)
  EC50: 110 µM
  SI, selectivity index: 3
[3]
  CC50 at 5 days: 294 µM
HIV-1 RT R448A
  Shift of the inhibition curve (loss of potency): four-fold

## O=C1Nc2cc(Br)c(Br)cc2C1=NNc1cc(=O)[nH]c(=O)[nH]1 [Compound 6u, 6-(2-(5,6-Dibromo-2-oxoindolin-3-ylidene)hydrazineyl)pyrimidine-2,4(1H,3H)-dione]
[1]
  IC50: 11.8 ± 0.81 µM

## Cc1cc(C)c2c(c1)C(=NNc1cc(=O)[nH]c(=O)[nH]1)C(=O)N2 [Compound 6v, 6-(2-(5,7-Dimethyl-2-oxoindolin-3-ylidene)hydrazineyl)pyrimidine-2,4(1H,3H)-dione]
[1]
  IC50: 23.6 ± 3.89 µM

## O=C1Nc2cc(Cl)c(Cl)cc2C1=NNc1c[nH]c(=O)[nH]c1=O [Compound 11a, 5-(2-(5,6-Dichloro-2-oxoindolin-3-ylidene)hydrazineyl)pyrimidine-2,4(1H,3H)-dione]
[2]
  Mode of inhibition: mixed model inhibitor
  Ki: 0.55 µM
[2]; inhibitor 1 μM
  Vmax (apparent): 105.8
[2]; inhibitor 2 μM
  Vmax (apparent): 98.24
[2]; inhibitor 4 μM
  Vmax (apparent): 41.29
[1]
  IC50: 1.9 ± 0.01 µM
  Fold increase in RNase H inhibitory potency compared to compound 6a: 40 fold
  Fold increase in RNase H inhibitory potency compared to compound 6t: 4 fold
HIV-1 (strain IIIB)
  EC50: 39 µM
  SI, selectivity index: 10
[3]
  CC50 at 5 days: 402 µM
HIV-1 RT R448A
  Shift of the inhibition curve (loss of potency): two-fold

## O=C1Nc2cc(Br)c(Br)cc2C1=NNc1c[nH]c(=O)[nH]c1=O [Compound 11b, 5-(2-(5,6-Dibromo-2-oxoindolin-3-ylidene)hydrazineyl)pyrimidine-2,4(1H,3H)-dione]
[1]
  IC50: 2.2 ± 0.2 µM
  Fold increase in RNase H inhibitory potency compared to compound 6a: 40 fold
  Fold increase in RNase H inhibitory potency compared to compound 6t: 4 fold
HIV-1 (strain IIIB)
  EC50: 44.9 µM
  SI, selectivity index: 8
[3]
  CC50 at 5 days: 349 µM
